The target in the test is Alpha-glucosidase MAL12 (Saccharomyces cerevisiae) (UniProt P53341). Nature of the test: Potency index, ratio of acarbose IC50 to compound IC50 for bakers yeast alpha-glucosidase.

Structures are written as SMILES.

Sequence of Alpha-glucosidase MAL12 (Saccharomyces cerevisiae) (P53341 whole entry, looked up): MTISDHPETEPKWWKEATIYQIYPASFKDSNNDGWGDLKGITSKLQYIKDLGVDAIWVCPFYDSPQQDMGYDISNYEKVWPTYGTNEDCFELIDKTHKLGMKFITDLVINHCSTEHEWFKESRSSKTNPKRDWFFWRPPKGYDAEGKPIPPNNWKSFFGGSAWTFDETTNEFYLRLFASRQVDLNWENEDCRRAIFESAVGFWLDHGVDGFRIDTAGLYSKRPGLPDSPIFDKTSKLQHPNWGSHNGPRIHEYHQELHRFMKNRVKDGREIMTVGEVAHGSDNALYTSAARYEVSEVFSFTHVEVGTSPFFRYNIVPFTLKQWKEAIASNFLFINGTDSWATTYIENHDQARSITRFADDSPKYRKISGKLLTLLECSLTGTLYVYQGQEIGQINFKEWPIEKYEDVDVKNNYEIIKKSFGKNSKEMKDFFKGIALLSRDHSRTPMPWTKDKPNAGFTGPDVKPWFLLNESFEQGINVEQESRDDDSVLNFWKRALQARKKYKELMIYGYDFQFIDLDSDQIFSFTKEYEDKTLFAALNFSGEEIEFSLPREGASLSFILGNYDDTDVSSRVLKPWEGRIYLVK

In the case of `CCOc1ccccc1NC(=O)Cn1cc(Cn2c(-c3cccc(Br)c3)nc(-c3ccccc3)c2-c2ccccc2)nn1`, the Ratio IC50 turned out to be 52.

Values taken from ChEMBL document CHEMBL3867466, “Synthesis and biological evaluation of novel 2,4,5-triarylimidazole-1,2,3-triazole derivatives via click chemistry as α-glucosidase inhibitors” (Bioorg Med Chem Lett, 2016).
